Reference: ChEMBL document CHEMBL5113380, “Functionalized quinoxalinones as privileged structures with broad-ranging pharmacological activities” (Eur J Med Chem, 2022)
Converted amounts (≈) assume the structure as drawn.

Target: Human immunodeficiency virus type 1 reverse transcriptase (Human immunodeficiency virus 1, UniProt Q72547)
Test: Inhibition of HIV1 reverse transcriptase
Conditions: not given
Work on `COC(=O)c1sccc1S(=O)(=O)N1c2cc(Cl)ccc2NC(=O)C1C` (stereo not drawn) yielded an IC50 of 0.2 µM.
`CCC(=O)N1CC(=O)Nc2ccccc21` gave an IC50 of 0.63 µM.

Tested on: Candida
Test: Antifungal activity against Candida species isolate 3
Format: functional
Conditions: not given
With `O=c1[nH]c2cc(C(F)(F)F)ccc2nc1CBr` the MIC was < 3.5 µg/mL.
With `O=c1[nH]c2cc(F)c(F)cc2nc1CBr` the MIC was 500 µg/mL (≈ 1820 µM).
`O=c1[nH]c2cc(C(F)(F)F)ccc2nc1C(F)(F)F` gave an MIC of 125 µg/mL (≈ 443 µM).
`O=c1[nH]c2ccc(C(F)(F)F)cc2nc1C(F)(F)F` showed an MIC of 125 µg/mL (≈ 443 µM).
In the case of `O=c1[nH]c2ccc(C(F)(F)F)cc2nc1CBr`, the MIC is reported as 62.5 µg/mL (≈ 204 µM).

Tested on: Staphylococcus aureus
Test: Antibacterial activity against Staphylococcus aureus
Format: functional
Conditions: not given
Compound `O=c1[nH]c2cc(C(F)(F)F)ccc2nc1CBr` has an MIC of 62.5 µg/mL (≈ 204 µM).
In the case of `O=c1[nH]c2cc(F)c(F)cc2nc1CBr`, the MIC is reported as 125 µg/mL (≈ 454 µM).
For `O=c1[nH]c2ccc(C(F)(F)F)cc2nc1CBr`, the MIC was 31.2 µg/mL (≈ 102 µM).

Tested on: Nakaseomyces glabratus
Test: Antifungal activity against Candida glabrata
Format: functional
Conditions: not given
In the case of `O=c1[nH]c2cc(C(F)(F)F)ccc2nc1CBr`, the MIC is reported as > 125 µg/mL.
`O=c1[nH]c2cc(F)c(F)cc2nc1CBr` gave an MIC of 125 µg/mL (≈ 454 µM).
Work on `O=c1[nH]c2cc(C(F)(F)F)ccc2nc1C(F)(F)F` yielded an MIC of 125 µg/mL (≈ 443 µM).
Work on `O=c1[nH]c2ccc(C(F)(F)F)cc2nc1C(F)(F)F` yielded an MIC of 250 µg/mL (≈ 886 µM).
In the case of `O=c1[nH]c2ccc(C(F)(F)F)cc2nc1CBr`, the MIC is reported as 62.5 µg/mL (≈ 204 µM).

Target: Human immunodeficiency virus type 1 reverse transcriptase (Human immunodeficiency virus 1) (UniProt Q72547)
Test: Inhibition of HIV1 reverse transcriptase at 100 uM relative to control
Conditions: not given
Compound `CC(C)COC(=O)N1CC(=O)Nc2ccccc21` has an inhibition of 46%.
For `CC(=O)N1CC(=O)Nc2ccccc21`, the inhibition was 56%.
Compound `CCC(=O)N1CC(=O)Nc2ccccc21` has an inhibition of 99%.

Tested on: HCT-116
Test: Antiproliferative activity against human HCT-116 cells after 72 hrs by MTT assay
Format: functional, cell-based
Conditions: HCT-116, 72 h
Compound `O=c1[nH]c2ccccc2nc1/C=C/c1ccccc1Br` has an IC50 of 12.3 µM.

Tested on: Candida parapsilosis
Test: Antifungal activity against Candida parapsilosis
Format: functional
Conditions: Lodderomyces parapsilosis
For `O=c1[nH]c2cc(C(F)(F)F)ccc2nc1CBr`, the MIC was > 125 µg/mL.
Compound `O=c1[nH]c2cc(F)c(F)cc2nc1CBr` has an MIC of 62.5 µg/mL (≈ 227 µM).
`O=c1[nH]c2cc(C(F)(F)F)ccc2nc1C(F)(F)F` showed an MIC of 15.6 µg/mL (≈ 55.3 µM).
With `O=c1[nH]c2ccc(C(F)(F)F)cc2nc1C(F)(F)F` the MIC was 125 µg/mL (≈ 443 µM).
For `O=c1[nH]c2ccc(C(F)(F)F)cc2nc1CBr`, the MIC was 250 µg/mL (≈ 814 µM).

Tested on: not listed separately
Test: Antioxidant activity assessed as DPPH radical scavenging activity
Format: functional
Conditions: read-out: IC50
`CC(C)c1nc2ccc(N3C(=O)CSC3c3ccc([N+](=O)[O-])cc3)cc2[nH]c1=O` (stereo not drawn) gave an IC50 of 162 µM.

Target: Glutamate receptor ionotropic AMPA (Homo sapiens, UniProt P42261+P42262+P42263+P48058)
Test: Displacement of [3H]AMPA from AMPA receptor (unknown origin)
Format: protein-complex assay
Conditions: not given
`Cc1cc2[nH]c(=O)c(=O)n(CP(=O)(O)O)c2cc1C` gave a Ki of 1.21 µM.
For `Oc1nc2cc(Cl)c(Cl)cc2n2ccnc12`, the IC50 was 7.38 µM.
With `Cc1cc2[nH]c(=O)c(=O)n(CC(=O)O)c2cc1C` the Ki was 0.7 µM.
Work on `Oc1nc2cc(Cl)c(Cl)cc2n2cnnc12` yielded an IC50 of 4.69 µM.
`O=C(O)Cn1c(=O)c(=O)[nH]c2cc(Cl)c(Cl)cc21` showed a Ki of 2.1 µM.

Tested on: not listed separately
Test: Inhibition of palmitate-induced lipid accumulation in human HepG2 cells relative to control
Format: functional
Conditions: not given
With `Cc1cccc2c1NCCN2` the “inhibition (INH)” value was 30%.
With `Cc1ccc2c(c1)N[C@H](C)C(=O)N2` the “inhibition (INH)” value was 50%.
For `Cc1ccc2ncc(C)nc2c1`, the “inhibition (INH)” value was 20%.
In the case of `Cc1ccc2c(c1)N[C@@H](C)C(=O)N2`, the “inhibition (INH)” value is reported as 50%.
In the case of `Cc1cnc2ccccc2n1`, the “inhibition (INH)” value is reported as 20%.
With `Cc1cccc2c1NC(=O)CN2` the “inhibition (INH)” value was 50%.
For `Cc1cccc2c1NC[C@H](C)N2`, the “inhibition (INH)” value was 30%.
For `CN1CCNc2ccccc21`, the “inhibition (INH)” value was 30%.

Target: Human immunodeficiency virus type 1 reverse transcriptase (Human immunodeficiency virus 1) (UniProt Q72547)
Test: Inhibition of HIV1 reverse transcriptase at 10 uM relative to control
Conditions: not given
`CC(C)COC(=O)N1CC(=O)Nc2ccccc21` showed an inhibition of 20%.
`CC(=O)N1CC(=O)Nc2ccccc21` showed an inhibition of 7%.
`CCC(=O)N1CC(=O)Nc2ccccc21` gave an inhibition of 91%.

Target: Glutamate [NMDA] receptor
Test: Displacement of [3H]glycine from NMDA receptor (unknown origin)
Format: protein-complex assay, Homo sapiens
Conditions: not given
Compound `Cc1cc2[nH]c(=O)c(=O)n(CP(=O)(O)O)c2cc1C` has a Ki of 5.28 µM.
Compound `Oc1nc2cc(Cl)c(Cl)cc2n2ccnc12` has an IC50 of 1.26 µM.
`CCCc1nnc2c(O)nc3cc(Cl)c(Cl)cc3n12` showed an IC50 of 3.92 µM.
Compound `Cc1cc2[nH]c(=O)c(=O)n(CC(=O)O)c2cc1C` has a Ki of 13.8 µM.
With `Oc1nc2cc(Cl)c(Cl)cc2n2cnnc12` the IC50 was 0.63 µM.
With `O=C(O)Cn1c(=O)c(=O)[nH]c2cc(Cl)c(Cl)cc21` the Ki was 0.11 µM.

Tested on: Escherichia coli
Test: Antibacterial activity against Escherichia coli assessed as diameter zone of inhibition
Format: functional
Conditions: not given
With `O=C1CN(C(=O)CNc2ccccc2O)c2ccccc2N1` the “diameter of the inhibition zone (DIZ)” value was 11 mm.

Tested on: B16-F10
Test: Antiproliferative activity against mouse B16-F10 cells after 72 hrs by MTT assay
Format: functional, cell-based
Conditions: B16-F10, 72 h
Compound `O=c1[nH]c2ccccc2nc1/C=C/c1ccccc1Br` has an IC50 of 7.61 µM.

Tested on: HeLa 229
Test: Antiproliferative activity against human HeLa 229 cells after 72 hrs by MTT assay
Format: functional, cell-based
Conditions: HeLa 229, 72 h
With `O=c1[nH]c2ccccc2nc1/C=C/c1ccccc1Br` the IC50 was > 50 µM.

Tested on: Pichia kudriavzevii
Test: Antifungal activity against Candida krusei
Format: functional
Conditions: not given
Work on `O=c1[nH]c2cc(C(F)(F)F)ccc2nc1CBr` yielded an MIC of 125 µg/mL (≈ 407 µM).
Compound `O=c1[nH]c2cc(F)c(F)cc2nc1CBr` has an MIC of 125 µg/mL (≈ 454 µM).
With `O=c1[nH]c2cc(C(F)(F)F)ccc2nc1C(F)(F)F` the MIC was 250 µg/mL (≈ 886 µM).
Work on `O=c1[nH]c2ccc(C(F)(F)F)cc2nc1C(F)(F)F` yielded an MIC of 250 µg/mL (≈ 886 µM).
`O=c1[nH]c2ccc(C(F)(F)F)cc2nc1CBr` gave an MIC of 62.5 µg/mL (≈ 204 µM).

Target: T1, Alpha amylase (Homo sapiens, UniProt P0DUB6)
T1 sequence (P0DUB6 whole entry): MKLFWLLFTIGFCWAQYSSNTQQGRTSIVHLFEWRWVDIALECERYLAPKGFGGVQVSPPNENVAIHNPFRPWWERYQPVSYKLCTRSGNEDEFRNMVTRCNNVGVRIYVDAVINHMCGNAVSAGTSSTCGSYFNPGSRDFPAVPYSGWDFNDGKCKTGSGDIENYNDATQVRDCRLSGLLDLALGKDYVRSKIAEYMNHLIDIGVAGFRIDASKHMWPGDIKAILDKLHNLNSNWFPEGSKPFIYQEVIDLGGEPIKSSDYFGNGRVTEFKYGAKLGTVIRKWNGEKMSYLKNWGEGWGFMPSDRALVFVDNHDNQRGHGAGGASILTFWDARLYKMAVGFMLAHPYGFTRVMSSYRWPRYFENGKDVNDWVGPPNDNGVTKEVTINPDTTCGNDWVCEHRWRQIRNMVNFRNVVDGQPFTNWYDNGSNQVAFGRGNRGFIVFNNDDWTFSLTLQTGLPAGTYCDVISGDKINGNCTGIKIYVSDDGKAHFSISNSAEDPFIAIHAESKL
Test: Inhibition of alpha-amylase (unknown origin)
Conditions: not given
With `COc1cccc(/C=N/Nc2nc3ccccc3[nH]c2=O)c1` the IC50 was 492.68 µM.
`O=c1[nH]c2ccccc2nc1N/N=C/c1cccs1` gave an IC50 of 395.84 µM.
In the case of `CC(C)c1nc2ccc(N3C(=O)CSC3c3ccc([N+](=O)[O-])cc3)cc2[nH]c1=O` (stereo not drawn), the IC50 is reported as 356.32 µM.

Tested on: Candida
Test: Antifungal activity against Candida species isolate 2
Format: functional
Conditions: not given
In the case of `O=c1[nH]c2cc(F)c(F)cc2nc1CBr`, the MIC is reported as 125 µg/mL (≈ 454 µM).
In the case of `O=c1[nH]c2cc(C(F)(F)F)ccc2nc1C(F)(F)F`, the MIC is reported as 125 µg/mL (≈ 443 µM).
For `O=c1[nH]c2ccc(C(F)(F)F)cc2nc1C(F)(F)F`, the MIC was 125 µg/mL (≈ 443 µM).
Work on `O=c1[nH]c2ccc(C(F)(F)F)cc2nc1CBr` yielded an MIC of 62.5 µg/mL (≈ 204 µM).

Tested on: NCI-H460
Test: Antiproliferative activity against human NCI-H460 cells after 72 hrs by MTT assay
Format: functional, cell-based
Conditions: NCI-H460, 72 h
Compound `O=c1[nH]c2ccccc2nc1/C=C/c1ccccc1Br` has an IC50 of 9.62 µM.

Tested on: Candida
Test: Antifungal activity against Candida species isolate 1
Format: functional
Conditions: not given
Work on `O=c1[nH]c2cc(C(F)(F)F)ccc2nc1CBr` yielded an MIC of 62.5 µg/mL (≈ 204 µM).
With `O=c1[nH]c2cc(F)c(F)cc2nc1CBr` the MIC was 62.5 µg/mL (≈ 227 µM).
Work on `O=c1[nH]c2cc(C(F)(F)F)ccc2nc1C(F)(F)F` yielded an MIC of 15.6 µg/mL (≈ 55.3 µM).
In the case of `O=c1[nH]c2ccc(C(F)(F)F)cc2nc1C(F)(F)F`, the MIC is reported as 125 µg/mL (≈ 443 µM).
Compound `O=c1[nH]c2ccc(C(F)(F)F)cc2nc1CBr` has an MIC of 15.6 µg/mL (≈ 50.8 µM).

Tested on: Candida tropicalis
Test: Antifungal activity against Candida tropicalis
Format: functional
Conditions: not given
With `O=c1[nH]c2cc(C(F)(F)F)ccc2nc1CBr` the MIC was 125 µg/mL (≈ 407 µM).
`O=c1[nH]c2cc(F)c(F)cc2nc1CBr` gave an MIC of 500 µg/mL (≈ 1820 µM).
`O=c1[nH]c2cc(C(F)(F)F)ccc2nc1C(F)(F)F` gave an MIC of 125 µg/mL (≈ 443 µM).
Work on `O=c1[nH]c2ccc(C(F)(F)F)cc2nc1C(F)(F)F` yielded an MIC of 250 µg/mL (≈ 886 µM).
With `O=c1[nH]c2ccc(C(F)(F)F)cc2nc1CBr` the MIC was > 500 µg/mL.

Tested on: Candida albicans
Test: Antifungal activity against Candida albicans
Format: functional
Conditions: not given
In the case of `O=c1[nH]c2cc(C(F)(F)F)ccc2nc1CBr`, the MIC is reported as > 125 µg/mL.
In the case of `O=c1[nH]c2cc(F)c(F)cc2nc1CBr`, the MIC is reported as 31.2 µg/mL (≈ 113 µM).
`O=c1[nH]c2cc(C(F)(F)F)ccc2nc1C(F)(F)F` showed an MIC of 8 µg/mL (≈ 28.4 µM).
`O=c1[nH]c2ccc(C(F)(F)F)cc2nc1C(F)(F)F` gave an MIC of 8 µg/mL (≈ 28.4 µM).
For `O=c1[nH]c2ccc(C(F)(F)F)cc2nc1CBr`, the MIC was 31.2 µg/mL (≈ 102 µM).
